According to ChEMBL document CHEMBL2439959, “Structural study of the location of the phenyl tail of benzene sulfonamides and the effect on human carbonic anhydrase inhibition” (Bioorg Med Chem, 2013):

How the values were obtained:
[1] = target: Carbonic anhydrase 5B, mitochondrial (Homo sapiens, UniProt Q9Y2D0)
[2] = target: Carbonic anhydrase 5A, mitochondrial (Homo sapiens, UniProt P35218)
Carbonic anhydrase 5A, mitochondrial, sequence (P35218 whole entry): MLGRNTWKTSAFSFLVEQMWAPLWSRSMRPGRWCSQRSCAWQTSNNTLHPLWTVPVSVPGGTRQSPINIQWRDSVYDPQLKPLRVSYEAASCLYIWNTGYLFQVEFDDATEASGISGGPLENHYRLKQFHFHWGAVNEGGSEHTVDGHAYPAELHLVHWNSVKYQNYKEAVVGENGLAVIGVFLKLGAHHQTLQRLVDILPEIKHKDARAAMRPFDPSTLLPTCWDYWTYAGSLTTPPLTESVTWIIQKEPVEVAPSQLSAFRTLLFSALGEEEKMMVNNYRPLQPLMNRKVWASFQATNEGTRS

Carbonic anhydrase 5B, mitochondrial, sequence (Q9Y2D0 whole entry): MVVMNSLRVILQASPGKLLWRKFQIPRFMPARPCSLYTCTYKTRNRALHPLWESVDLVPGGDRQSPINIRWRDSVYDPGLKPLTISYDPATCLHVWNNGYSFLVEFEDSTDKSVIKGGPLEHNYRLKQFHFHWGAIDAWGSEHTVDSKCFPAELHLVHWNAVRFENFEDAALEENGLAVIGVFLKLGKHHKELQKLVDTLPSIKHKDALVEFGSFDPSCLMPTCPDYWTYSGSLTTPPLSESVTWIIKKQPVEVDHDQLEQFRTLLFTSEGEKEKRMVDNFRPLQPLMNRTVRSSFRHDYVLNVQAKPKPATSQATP

Row | Ki [1] [nM] | Ki [2] [nM] | Compound
1 | 340 | 451 | NS(=O)(=O)c1ccc(Nc2nc(Cl)nc(NCCO)n2)cc1
2 | 10 | 13 | NS(=O)(=O)c1ccc(NC(=O)Cc2ccccc2)cc1
